The subject of experiment [1] is colon cancer samples. The experiment is described as follows: IHC on paraffin tissue sections, colon cancer. Particulars: biotinylated antibody. It is filed as binding, human. From the text:
(§1) FIG. 2. Immunohistochemistry results from cancer tissue arrays. Immunohistochemistry method (IHC) was used for determining the presence of NEO-101/102, NEO-201 and NEO-301 antigens on paraffin microarrays and tissues. These primary antibodies (NEO-101/NEO-102, NEO-201 and NEO-301) were biotinylated prior to use. Paraffin tissue Microarrays and slides of tissues were reacted with the primary Ab after inactivating endogenous peroxidase and blocking the slides. Staining was detected with streptavidin-horseradish peroxidase conjugate and visualized with chromogen. Biotinylated human IgG1 was used as negative control and mouse anti-human cytokeratin monoclonal antibody was used as positive control. Antibody staining is measured as % and intensity of tumor epithelial cells and luminal secretion within the whole tissue section.
(§2) Immunohistochemistry (IHC) was used for determining the presence of NEO-101/102, NEO-201 and NEO-301 antigens on paraffin microarrays and tissues. These primary antibodies (NEO-101/NEO-102, NEO-201 and NEO-301) were biotinylated prior to use. Paraffin tissue microarrays and slides of tissues were reacted with the primary antibody after inactivating endogenous peroxidase and blocking the slides. Staining was detected with streptavidin-horseradish peroxidase conjugate and visualized with chromogen. Biotinylated human IgG1 was used as negative control and mouse anti-human cytokeratin monoclonal antibody was used as positive control. Antibody staining was measured as % and intensity of tumor epithelial cells and luminal secretion within the whole tissue section.
(§3) The cancer cells and normal cells tested were of the following tissue origins: Colon, Pancreas, Lung, Larynx, Prostate, Esophagus, Uterus, Stomach, Skin, Breast, and Ovary.

Experiment [2] has as its system lung cancer samples. The experiment can be described thus: IHC on paraffin tissue sections, lung cancer. The format is binding, human. The note with it: biotinylated antibody, relatively fewer samples tested.
Description: as §1
(§4) Immunohistochemistry (IHC) was used for determining the presence of NEO-101/102, NEO-201 and NEO-301 antigens on paraffin microarrays and tissues. These primary antibodies (NEO-101/NEO-102, NEO-201 and NEO-301) were biotinylated prior to use. […] Staining was detected with streptavidin-horseradish peroxidase conjugate and visualized with chromogen. […] Antibody staining was measured as % and intensity of tumor epithelial cells and luminal secretion within the whole tissue section. […]

Experiment [3] relates to lung adenocarcinoma cells. The experiment is described as follows: Flow cytometry antigen expression, lung adenocarcinoma cell lines. It is filed as binding, human. Particulars: primary antibody at 10 ug/mL; multiple lung adenocarcinoma cell lines. Here is the method: (§5) FIG. 1. NEO-101, NEO-201 and NEO-301 Antigen Expression by Human Normal and Cancer Cell Lines. NEO-101, NEO-201 and NEO-301 specific antigen expression in various cell lines were detected by Flow Cytometry. Viable cell suspensions were incubated with primary antibody NEO-101, NEO-201 and NEO-301 separately at 10 ug/mL. Human IgG (10 ug/mL) was used as negative control. Goat anti-human IgG (Fc)-phycoerythrin conjugate was used for primary antibody detection; 7-ADD was used for excluding dead cells from analysis. The staining was measured by Flow Cytometry (Guava instrument, Millipore). Median fluorescent intensity (MFI) and % of stained cells was used for determining presence of specific antigen on each cell line.
(§6) Antigen expression in cell lines of various origins were detected by Flow Cytometry. Viable cell suspensions were incubated with primary antibody NEO-101, NEO-201 and NEO-301 separately at 10 ug/mL. Human IgG (10 ug/mL) was used as negative control. Goat anti-human IgG (Fc)-phycoerythrin conjugate was used for primary antibody detection; 7-ADD was used for excluding dead cells from analysis. The staining was measured by Flow Cytometry (Guava instrument, Millipore). Median fluorescent intensity (MFI) and % of stained cells was used for determining presence of specific antigen on each cell line. […]
For orientation: In flow cytometry, cells or beads pass a laser one at a time.

The next experiment deals with skin cancer samples. The experiment is described as follows: IHC on cancer tissue microarray, skin cancer. It is filed as binding, human. The note with it: biotinylated antibody.
Description: as §1, §4

In experiment [4] the test system is pancreatic cancer samples. The experiment can be described thus: IHC on paraffin tissue sections, pancreatic cancer. The format is binding, human. Particulars: biotinylated antibody.
Description: as §1, §2, §3

A further experiment deals with Human tumor xenografts. The experiment can be described thus: In vivo localization of radiolabeled antibodies in tumor-bearing mice. Set-up: species or system SCID or nude mice. The note with it: 111In or 86Y label, intravenous, paper example in present tense. From the text: Antibodies NEO-101, NEO-201, and NEO-301 are radiolabeled by conjugation to either ^111In or ^86Y using the acyclic chelate CHX-A″-DTPA. The conjugation molar ratios are empirically determined. Human tumor xenografts are introduced into SCID or nude mice, including the cell lines identified in FIG. 1 as being reactive with NEO-101, NEO-201, or NEO-301 in cell culture and optionally further cancer cell lines detected to bind those antibodies. Control xenografts non-reactive with these antibodies are also utilized. Following intravenous administration of radiolabeled antibodies in tumor-bearing mice, cell samples are harvested and analyzed. Labeled antibody biodistribution is determined with respect to the tumor and other tissues including liver and kidneys.
Additionally, xenograft bearing mice are subjected to imaging studies including planar gamma-imaging performed at multiple time points to assess the stability of labeled antibody binding to the tumor cells and measure the level of accumulation of radiolabeled antibody in other tissues.

In experiment [5] the test system is lung cancer samples. The experiment can be described thus: IHC on cancer tissue microarray, lung cancer. The format is binding, human. The note with it: biotinylated antibody.
Description: as §1, §4

The subject of a further experiment is uterus cancer samples. The experiment is described as follows: IHC on cancer tissue microarray, uterus cancer. It is filed as binding, human. Particulars: biotinylated antibody.
Description: as §1, §4

Experiment [6] has as its system pancreatic adenocarcinoma cells. The experiment is described as follows: Flow cytometry antigen expression, pancreatic adenocarcinoma cell lines. The note with it: primary antibody at 10 ug/mL. It is filed as binding, human. Here is the method: as §5
(§7) Antigen expression in cell lines of various origins were detected by Flow Cytometry. Viable cell suspensions were incubated with primary antibody NEO-101, NEO-201 and NEO-301 separately at 10 ug/mL. Human IgG (10 ug/mL) was used as negative control. Goat anti-human IgG (Fc)-phycoerythrin conjugate was used for primary antibody detection; 7-ADD was used for excluding dead cells from analysis. The staining was measured by Flow Cytometry (Guava instrument, Millipore). Median fluorescent intensity (MFI) and % of stained cells was used for determining presence of specific antigen on each cell line.
(§8) The cell lines tested included breast cancer cells, cervical squamous carcinoma cells, colorectal adenocarcinoma cells, lung adenocarcinoma cells, lung carcinoma cells, lung squamous carcinoma cells, myelogenous leukemia cells, ovarian cancer cells, pancreatic adenocarcinoma cells, pancreatic carcinoma cells, prostate adenocarcinoma cells, and prostate cancer cells. Additionally, normal lung cells were tested.

Experiment [7] deals with lung squamous carcinoma cells. The experiment is described as follows: Flow cytometry antigen expression, lung squamous cell carcinoma cell lines. The format is binding, human. The note with it: primary antibody at 10 ug/mL; multiple lung squamous cell carcinoma cell lines. Here is the method: as §5, §6
For experiment [8], the system named is pancreatic cancer samples. The experiment can be described thus: IHC on cancer tissue microarray, pancreatic cancer. The format is binding, human. The note with it: biotinylated antibody.
Description: as §1, §2, §3

In experiment [9] the test system is colorectal adenocarcinoma cells. The experiment can be described thus: Flow cytometry antigen expression, colorectal adenocarcinoma cell lines. It is filed as binding, human. Particulars: primary antibody at 10 ug/mL; multiple colorectal adenocarcinoma cell lines. Here is the method: as §5, §7, §8
In experiment [10] the test system is colon cancer samples. The experiment can be described thus: IHC on cancer tissue microarray, colon cancer. It is filed as binding, human. The note with it: biotinylated antibody.
Description: as §1, §2, §3

For a further experiment, the system named is breast cancer samples. The experiment can be described thus: IHC on cancer tissue microarray, breast cancer. The format is binding, human. The note with it: biotinylated antibody.
Description: as §1, §4

Another experiment deals with esophagus cancer samples. The experiment can be described thus: IHC on cancer tissue microarray, esophagus cancer. The format is binding, human. The note with it: biotinylated antibody.
Description: as §1, §4

The next experiment relates to stomach cancer samples. The experiment can be described thus: IHC on cancer tissue microarray, stomach cancer. It is filed as binding, human. Particulars: biotinylated antibody.
Description: as §1, §4

Regarding “NEO-201: Humanized 16C3 antibody; binds epitopes in CEACAM5 and CEACAM6”, the “cancer samples positive for the antigen” value is reported as 94% in the experiment on colon cancer samples [1]; 90% in the experiment with lung cancer samples [2]; 16% in the experiment on skin cancer samples; 83% in experiment [4]; 61% with lung cancer samples [5]; 51% with uterus cancer samples. The “cancer samples positive for the antigen” value worked out at 86% in experiment [8] and 85% with colon cancer samples [10]. Further, the “antigen expression detected by flow cytometry” value (“antigen expression detected” for short) in [3], in experiment [6], in [7] and in [9] was “detected” in each case. Further, the “binding of radiolabeled antibody to its antigen in vivo” value (“binding of radiolabeled antibody” below) in the experiment with Human tumor xenografts is recorded as “able to bind their respective antigens”.

In the case of “NEO-301: Chimeric 31.1 antibody, 2 amino acid changes in HC constant domain, produced in high titer CHO-S cells; binds A33 antigen”, the “cancer samples positive for the antigen” value in the experiment on colon cancer samples [1] was 52%; in the experiment with breast cancer samples, 78%; in experiment [4] it was 47%; in the experiment on lung cancer samples [5], 56%; in the experiment on esophagus cancer samples it was 43%; in experiment [8] it was 57%. Further, the “cancer samples positive for the antigen” value with colon cancer samples [10] is 87%. The “binding of radiolabeled antibody” value with Human tumor xenografts was “able to bind their respective antigens”. Besides, the “antigen expression detected” value in experiment [6] and in [9] was “detected” in each case.

B1: NEO-101: Chimeric NPC-1 antibody, engineered in CHO-DG44 production cell clone 4B7; targets a variant of MUC5AC (protein)
light: QVVLTQSPVIMSASPGEKVTMTCSASSSISYMYWYQQKPGTSPKRWIYDTSKLASGVPARFSGSGSGTSYSLTISNMEAGDAATYYCHQRDSYPWTFGGGTNLEIK
heavy: QVQLKESGPDLVAPSQSLSITCTVSGFSLSKFGVNWVRQPPGKGLEWLGVIWGDGSTSYNSGLISRLSISKENSKSQVFLKLNSLQADDTATYYCVKPGGDYWGHGTSVTVSS
Consider B1, for which the “cancer samples positive for the antigen” value in the experiment on colon cancer samples [1] is reported as 87%; with lung cancer samples [2], 67%; in experiment [4], 82%; in the experiment with uterus cancer samples, 41%; in the experiment with stomach cancer samples it was 30%; in experiment [8] it was 31%. Besides, the “cancer samples positive for the antigen” value with colon cancer samples [10] came out at 61%. In addition, the “binding of radiolabeled antibody” value in the experiment on Human tumor xenografts is “able to bind their respective antigens”. In addition, the “antigen expression detected” value in [6] and in experiment [9] was “detected” throughout.
